Measurements as given in PMC5382200, “Mapping and Identification of Antifungal Peptides in the Putative Antifungal Protein AfpB from the Filamentous Fungus Penicillium digitatum” (Frontiers in Microbiology, 2017).
In brackets after ≈: the same amount, converted by molar mass. Entries after “also recorded” stand apart in the source; their conditions may differ. Where two headings read alike, the source gives them in different places. Positions of bridges follow the written chain, without caps; N, C: chain ends. Residues, ends and D or L forms follow the SMILES beside them. No end group written: not given here.

What was measured:
A. niger CBS 120.49 = test system: A. niger CBS 120.49
Description: (§1) The fungal strains used in this study are P. digitatum CECT20796, P. chrysogenum Q176, Botrytis cinerea CECT2100, Fusarium oxysporum 4287, and Aspergillus niger CBS 120.49. Fungi were cultured on potato dextrose agar (Difco-BD Diagnostics, Sparks, MD, USA) plates for 7–10 days at 24°C with the exception of F. oxysporum, which was cultured on potato dextrose broth (PDB; Difco-BD Diagnostics) at 28°C for 4 days with shaking. Conidia (mitotic asexual spores) were collected, filtered, and adjusted to the appropriate concentration. For antibacterial assays, the Gram-negative bacterium Escherichia coli JM109 was grown in Luria-Bertani (LB) medium at 37°C with shaking.
(§2) Growth inhibition assays were performed in 96-well microtiter plates (Nunc, Roskilde, Denmark) in a total volume of 100 μL as described previously ([López-García et al., 2002]). […] All samples were prepared in triplicate. Plates were statically incubated for 72 h at the optimal temperature of each microorganism. Growth was determined by measuring the optical density (OD) at 600 nm (OD600) using a Multiskan Spectrum plate spectrophotometer (Thermo Electron Corporation, Vantaa, Finland), and the OD600 mean and SD were calculated. Dose–response curves were generated from measurements after 72 h for fungi, and 48 h for E. coli. These experiments were repeated at least twice.

B. cinerea CECT2100 = test system: B. cinerea CECT2100
Description: as §1, §2

P. chrysogenum Q176 = settings: 72 h
Description: as §1, §2

P. digitatum CECT20796 = test system: P. digitatum CECT20796
Description: as §1, §2

proteinase K = test system: T1, proteinase K; assay: Proteolytic digestion assay with RP-HPLC analysis; format: in vitro ADME; settings: recombinant proteinase K; proteinase K 5 μg/mL (2 U/mg), peptide 5 μM in 10 mM MOPS pH 7, 30°C, 24 h; RP-HPLC C18 peak area at 214 nm; two replicates; read-out: peptide left after 24 h of treatment
T1 construct: purchased Roche, Mannheim, Germany
Description: (§3) The proteolytic digestion assays were performed as described ([Ferre et al., 2006]; [López-García et al., 2015]) with minor modifications. Peptides (5 μM) were dissolved in 10 mM MOPS pH 7 and digested with 5 μg/mL of recombinant proteinase K (2 U/mg; Roche, Mannheim, Germany) at 30°C. Aliquots were withdrawn from the reaction mixtures at 0, 1, 2, and 24 h of incubation and immediately heated at 80°C for 10 min to inactivate the enzyme. Two replicates were prepared for each treatment, and the experiments were repeated at least twice.
(§4) Analyses of peptide digests were conducted by RP-HPLC using a Waters system (Waters Corporation, Milford, MA, USA) equipped with a 1525 Binary HPLC pump, a 2996 Photodiode Array Detector, and a 717 plus Autosampler. A Symmetry C18 column (4.6 mm × 150 mm, 5 μm, Waters Corporation) kept at 40°C was operated at a flow rate of 1 mL/min. Peptides were eluted with a linear gradient of solvent B [acetonitrile with 0.1% trifluoroacetic acid (TFA)] in solvent A (water with 0.1% TFA) 0–40% in 20 min and detected at 214 nm.

recombinant proteinase K [1] = target: T2, recombinant proteinase K (Parengyodontium album, UniProt P06873); assay: Proteolytic digestion assay with RP-HPLC analysis; format: in vitro ADME; settings: two replicates; for resistance to degradation by proteinase K (in words): peptide 5 μM in 10 mM MOPS pH 7, 30°C, 0, 1, 2 and 24 h
T2 construct: purchased Roche, Mannheim, Germany
Description: as §3, §4

[2] = ref Palicz et al., 2013; cited from earlier work
Source text: (§5) There is an urgent need to develop new antifungal molecules with properties and mechanisms of action different from existing ones ([Brown et al., 2012]; [Fisher et al., 2012]). […] A remarkable group of AMPs are the antifungal proteins (AFPs) of fungal origin. AFPs belong to the broad class of defensins and are p ...

mammalian cells = settings: ref Marx et al., 2008; cited from earlier work
Source text: as §5

F. oxysporum 4287 = settings: 4287, 72 h
Description: as §1, §2

recombinant proteinase K [3] = target: T2, recombinant proteinase K; settings: control peptide; ref López-García et al., 2015; cited from earlier work
Description: To exclude the possibility that increased sensitivity to proteolytic degradation could be the reason for limited antifungal activity, we tested the in vitro stability of the peptides derived from AfpB by incubation with proteinase K at different times and RP-HPLC analysis of the resultant digests.

[4] = B. cinerea CECT2100, 2.5 × 10^4 conidia/mL in 1/20 diluted PDB with 0.01% chloramphenicol, 72 h, OD600, triplicate
[5] = proteinase K 5 μg/mL, RP-HPLC peak area at 214 nm

T2 sequence (P06873 106-384): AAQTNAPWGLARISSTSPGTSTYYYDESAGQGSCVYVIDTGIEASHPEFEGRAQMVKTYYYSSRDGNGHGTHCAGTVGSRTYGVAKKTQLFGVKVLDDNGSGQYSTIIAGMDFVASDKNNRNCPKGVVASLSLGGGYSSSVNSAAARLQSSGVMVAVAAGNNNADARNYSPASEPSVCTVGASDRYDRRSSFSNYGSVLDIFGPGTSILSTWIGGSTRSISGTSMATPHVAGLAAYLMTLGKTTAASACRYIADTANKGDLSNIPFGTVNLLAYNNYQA

Row | Compound | Minimum inhibitory concentration (MIC) (A. niger CBS 120.49; CBS 120.49, 72 h) | Minimum inhibitory concentration (MIC) (B. cinerea CECT2100; [4]) | Minimum inhibitory concentration (MIC) (P. chrysogenum Q176) | Minimum inhibitory concentration (MIC) (P. digitatum CECT20796; CECT20796, 72 h) | resistance to degradation by proteinase K (in words) (recombinant proteinase K [1]; [5]) | other results
1 | C[C@@H]1NC(=O)[C@H](C)NC(=O)[C@H](CO)NC(=O)CNC(=O)[C@@H](NC(=O)[C@@H](N)CC(N)=O)CSSC[C@@H](C(=O)N[C@@H](CCC(=O)O)C(=O)O)NC(=O)[C@H](Cc2c[nH]cn2)NC(=O)[C@H](Cc2c[nH]cn2)NC(=O)[C@H](CCCNC(=N)N)NC(=O)[C@H](CC(=O)O)NC(=O)[C@H](CO)NC(=O)[C@H](CCCCN)NC(=O)[C@H](C)NC(=O)[C@H](CCCNC(=N)N)NC(=O)[C@H](CCCCN)NC(=O)[C@H](CC(N)=O)NC1=O [PAF112] (H-NCGSAANKRAKSDRHHCE-OH; disulfide 2-17) | >128 µM | 128 µM (≈ 254 µg/mL) | >128 µM | 64 µM (≈ 127 µg/mL) | – | remaining at 24 h, 5 μM (proteinase K): ~20%
2 | CC(C)[C@@H]1NC(=O)[C@H](CCCNC(=N)N)NC(=O)[C@H](CCCNC(=N)N)NC(=O)[C@H](Cc2c[nH]cn2)NC(=O)[C@H](Cc2c[nH]cn2)NC(=O)[C@H](CCC(=O)O)NC(=O)[C@H](CC(=O)O)NC(=O)[C@H](Cc2ccc(O)cc2)NC(=O)[C@H](CCC(=O)O)NC(=O)[C@@H](NC(=O)[C@@H](N)Cc2c[nH]cn2)CSSC[C@@H](C(=O)N[C@@H](CCC(N)=O)C(=O)O)NC(=O)[C@H](CC(=O)O)NC1=O [PAF119] (H-HCEYDEHHRRVDCQ-OH; disulfide 2-13) | – | – | – | – | remarkably resistant; also recorded: extremely stable | –
3 | NAGSAANKRAKSDRHHAE [PAF113] | – | 128 µM | – | – | high sensitivity | Minimum inhibitory concentration (MIC) (A. niger CBS 120.49; A. niger CBS 120.49, 2.5 × 10^4 conidia/mL in 1/20 diluted PDB with 0.01% chloramphenicol, 72 h, OD600, triplicate): >128 µM; Minimum inhibitory concentration (MIC) (P. chrysogenum Q176; P. chrysogenum Q176, 2.5 × 10^4 conidia/mL in 1/20 diluted PDB with 0.01% chloramphenicol, OD600, triplicate): >128 µM; Minimum inhibitory concentration (MIC) (P. digitatum CECT20796; P. digitatum CECT20796, 2.5 × 10^4 conidia/mL in 1/20 diluted PDB with 0.01% chloramphenicol, 72 h, 24°C, OD600, triplicate, repeated at least twice, concentration that completely inhibited growth in all experiments): 64 µM; degradation after 1 h of treatment (recombinant proteinase K [1]; proteinase K 5 μg/mL, peptide 5 μM in 10 mM MOPS pH 7, 30°C, 1 h, RP-HPLC peak area at 214 nm): completely degraded
4 | AKYTGKCTKSKNECKYKNDAGKDTFIKCPKFDNKKCTKDNNKCTVDTYNNAVDCD (disulfide 7-36, 14-43, 28-54) [PAF protein] | – | – | – | – | – | toxicity in vivo [2]: non-toxic; toxicity to mammalian cells in vitro (mammalian cells): non-toxic
5 | C[C@@H]1NC(=O)[C@H](CCCCN)NC(=O)[C@H](CCCCN)NC(=O)[C@H](CC(N)=O)NC(=O)[C@H](CC(=O)O)NC(=O)[C@H](Cc2ccccc2)NC(=O)[C@H](CCCCN)NC(=O)[C@@H]2CCCN2C(=O)[C@@H](NC(=O)[C@@H](N)CCCCN)CSSC[C@@H](C(=O)N[C@H](C(=O)O)[C@@H](C)O)NC(=O)[C@H](CCCCN)NC(=O)[C@H](CC(N)=O)NC(=O)[C@H](CC(N)=O)NC(=O)[C@H](CC(=O)O)NC(=O)[C@H](CCCCN)NC(=O)[C@H]([C@@H](C)O)NC1=O [PAF116] (H-KCPKFDNKKATKDNNKCT-OH; disulfide 2-17) | – | 16 µM (≈ 33.3 µg/mL) | – | 32 µM (≈ 66.6 µg/mL) | – | –
6 | CC(C)C[C@@H]1NC(=O)[C@H](CO)NC(=O)[C@@H](NC(=O)[C@H](CCC(N)=O)NC(=O)CN)CSSC[C@@H](C(=O)N[C@H](C(=O)O)[C@@H](C)O)NC(=O)[C@H]([C@@H](C)O)NC(=O)[C@H](CC(N)=O)NC(=O)[C@H](Cc2c[nH]cn2)NC(=O)[C@H](CCCCN)NC1=O [PAF109] (H-GQCSLKHNTCT-OH; disulfide 3-10) | – | – | – | – | remarkably resistant; also recorded: extremely stable | –
7 | CC[C@H](C)[C@@H]1NC(=O)[C@H](C(C)C)NC(=O)[C@H](CC(N)=O)NC(=O)[C@H](CCCNC(=N)N)NC(=O)CNC(=O)CNC(=O)[C@H](CCCCN)NC(=O)[C@H](CC(C)C)NC(=O)[C@H](Cc2ccc(O)cc2)NC(=O)[C@H]([C@@H](C)O)NC(=O)[C@@H](NC(=O)[C@@H](NC(=O)[C@@H](N)CC(N)=O)[C@@H](C)O)CSSC[C@@H](C(=O)NCC(=O)O)NC(=O)[C@H](CC(N)=O)NC(=O)[C@H](C(C)C)NC1=O [PAF118] (H-NTCTYLKGGRNVIVNCG-OH; disulfide 3-16) | >128 µM | 64 µM (≈ 116 µg/mL) | >128 µM | 64 µM (≈ 116 µg/mL) | – | peptide left after 24 h of treatment (recombinant proteinase K [1]; proteinase K 5 μg/mL (2 U/mg), peptide 5 μM in 10 mM MOPS pH 7, 30°C, 24 h, RP-HPLC C18 peak area at 214 nm): around 20%; intact peptide after 1 and 2 h of treatment (recombinant proteinase K [1]; proteinase K 5 μg/mL, peptide 5 μM in 10 mM MOPS pH 7, 30°C, 1 and 2 h, RP-HPLC peak area at 214 nm): severe reduction
8 | RKKWFW [PAF26, reference compound] | 8 µM | – | 16 µM | 8 µM | – | Minimum inhibitory concentration (MIC) (B. cinerea CECT2100; CECT2100, 72 h): 8 µM; Minimum inhibitory concentration (MIC) (F. oxysporum 4287): 16 µM; resistance to protease degradation (recombinant proteinase K [3]): highly resistant
